From patent US20080051429A1, “USE OF 4-AMINO-PIPERIDINES FOR TREATING SLEEP DISORDERS” (priority 2006, published 2008)

Tests used:
Assay in all cases: R-SAT broad profiling
Format in all cases: cell-based
5HT7A = molecular target: T1, 5HT7A (Homo sapiens, UniProt P34969); details: read-out: pEC50 or pIC50 (converted)
T1 construct: expressed in transfected cells; host or cells: NIH3T3
Experimental: (§1) The functional receptor assay, Receptor Selection and Amplification Technology (R-SAT), was used (with minor modifications from that previously described U.S. Pat. No. 5,707,798) to screen compounds for efficacy at the 5-HT2A receptor. Briefly, NIH3T3 cells were grown in 96 well tissue culture plates to 70-80% confluence. Cells were transfected for 12-16 hours with plasmid DNAs using superfect (Qiagen Inc.) as per manufacture's protocols. R-SAT's were generally performed with 50 ng/well of receptor and 20 ng/well of Beta-galactosidase plasmid DNA. All receptor and G-protein constructs used were in the pSI mammalian expression vector (Promega Inc) as described in U.S. Pat. No. 5,707,798. The 5HT2A receptor gene was amplified by nested PCR from brain cDNA using the oligodeoxynucleotides based on the published sequence (see Saltzman et. al. Biochem. Biophys. Res. Comm. 181:1469-78 (1991)). Large-scale transfections, cells were transfected for 12-16 hours, then trypsinized and frozen in DMSO. Frozen cells were later thawed, plated at 10,000-40,000 cells per well of a 96 well plate that contained drug. With both methods, cells were then grown in a humidified atmosphere with 5% ambient CO2 for five days. Media was then removed from the plates and marker gene activity was measured by the addition of the beta-galactosidase substrate ONPG (in PBS with 5% NP-40). The resulting colorimetric reaction was measured in a spectrophotometric plate reader (Titertek Inc.)at […]. All data were analyzed using the computer program XLFit (IDBSm). Efficacy is the percent maximal repression compared to repression by a control compound (ritanserin in the case of 5HT2A). pIC50 is the negative of the log(IC50), where IC50 is the calculated concentration in Molar that produces 50% maximal repression.
(§2) The R-SAT assay (described above in example 289) was used to investigate the selectivity of 4-(4-Fluoro-benzyl)-3-(4-isobutoxy-benzyl)-8-methyl-1-oxa-3,8-diaza-spiro[4.5]decan-2-one.

D3 = molecular target: T2, D3 (Homo sapiens, UniProt P35462); details: read-out: pEC50 or pIC50 (converted)
T2 construct: expressed in transfected cells; host or cells: NIH3T3
Experimental: as §1, §2

alpha 1B = molecular target: T3, alpha 1B (Mesocricetus auratus, UniProt P18841); details: read-out: pEC50 or pIC50 (converted)
T3 construct: expressed in transfected cells; host or cells: NIH3T3
Experimental: as §1, §2

m1 = molecular target: T4, m1 (Homo sapiens, UniProt P11229); details: agonist; read-out: pEC50 or pIC50 (converted)
T4 construct: expressed in transfected cells; host or cells: NIH3T3
T4 sequence (P11229 1-460): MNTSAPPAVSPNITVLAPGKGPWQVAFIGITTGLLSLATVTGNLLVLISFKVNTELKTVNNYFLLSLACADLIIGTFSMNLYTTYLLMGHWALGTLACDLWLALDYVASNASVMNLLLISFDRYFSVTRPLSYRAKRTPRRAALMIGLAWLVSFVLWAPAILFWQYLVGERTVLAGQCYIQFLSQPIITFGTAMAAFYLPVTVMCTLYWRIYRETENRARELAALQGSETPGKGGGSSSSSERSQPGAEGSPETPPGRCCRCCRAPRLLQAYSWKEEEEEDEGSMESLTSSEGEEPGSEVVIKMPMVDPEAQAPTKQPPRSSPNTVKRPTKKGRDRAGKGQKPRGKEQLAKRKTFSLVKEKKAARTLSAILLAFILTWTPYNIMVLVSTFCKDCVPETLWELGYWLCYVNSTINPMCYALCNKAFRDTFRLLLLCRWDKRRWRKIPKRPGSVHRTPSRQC
Experimental: as §1, §2

m4 = molecular target: T5, m4 (Homo sapiens, UniProt P08173); details: agonist; read-out: pEC50 or pIC50 (converted)
T5 construct: expressed in transfected cells; host or cells: NIH3T3
T5 sequence (P08173 1-479): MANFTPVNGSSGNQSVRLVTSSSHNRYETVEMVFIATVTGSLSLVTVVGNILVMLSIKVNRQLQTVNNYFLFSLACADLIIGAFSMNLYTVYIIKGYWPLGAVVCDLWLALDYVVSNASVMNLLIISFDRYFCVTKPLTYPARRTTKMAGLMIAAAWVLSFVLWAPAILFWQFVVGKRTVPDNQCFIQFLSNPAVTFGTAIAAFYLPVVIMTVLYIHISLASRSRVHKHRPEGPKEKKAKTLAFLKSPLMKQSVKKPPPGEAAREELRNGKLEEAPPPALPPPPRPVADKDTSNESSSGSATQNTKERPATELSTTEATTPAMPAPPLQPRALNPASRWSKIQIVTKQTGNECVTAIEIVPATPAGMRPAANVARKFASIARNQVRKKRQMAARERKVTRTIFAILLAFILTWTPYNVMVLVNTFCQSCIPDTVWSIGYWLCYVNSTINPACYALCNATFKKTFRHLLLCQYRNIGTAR
Experimental: as §1, §2

m5 = molecular target: T6, m5 (Homo sapiens, UniProt P08912); details: agonist; read-out: pEC50 or pIC50 (converted)
T6 construct: expressed in transfected cells; host or cells: NIH3T3
T6 sequence (P08912 1-532): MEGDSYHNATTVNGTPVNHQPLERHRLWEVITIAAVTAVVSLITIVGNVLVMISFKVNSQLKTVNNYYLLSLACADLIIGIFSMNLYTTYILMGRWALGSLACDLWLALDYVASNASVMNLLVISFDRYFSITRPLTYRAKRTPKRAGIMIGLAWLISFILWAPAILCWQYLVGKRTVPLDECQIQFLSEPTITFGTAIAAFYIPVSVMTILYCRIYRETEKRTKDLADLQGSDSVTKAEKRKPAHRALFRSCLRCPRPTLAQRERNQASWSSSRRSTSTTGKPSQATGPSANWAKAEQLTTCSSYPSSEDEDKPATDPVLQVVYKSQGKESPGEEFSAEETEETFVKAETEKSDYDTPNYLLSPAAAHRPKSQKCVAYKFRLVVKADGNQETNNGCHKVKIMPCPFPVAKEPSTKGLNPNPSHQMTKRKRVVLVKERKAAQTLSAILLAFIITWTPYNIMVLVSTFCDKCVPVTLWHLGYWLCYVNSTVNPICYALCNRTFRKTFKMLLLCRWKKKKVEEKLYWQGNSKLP
Experimental: as §1, §2

oprk 1 = molecular target: T7, oprk 1 (Homo sapiens, UniProt P41145); details: read-out: pEC50 or pIC50 (converted)
T7 construct: expressed in transfected cells; host or cells: NIH3T3
Experimental: as §1, §2

T2 sequence (P35462 whole entry): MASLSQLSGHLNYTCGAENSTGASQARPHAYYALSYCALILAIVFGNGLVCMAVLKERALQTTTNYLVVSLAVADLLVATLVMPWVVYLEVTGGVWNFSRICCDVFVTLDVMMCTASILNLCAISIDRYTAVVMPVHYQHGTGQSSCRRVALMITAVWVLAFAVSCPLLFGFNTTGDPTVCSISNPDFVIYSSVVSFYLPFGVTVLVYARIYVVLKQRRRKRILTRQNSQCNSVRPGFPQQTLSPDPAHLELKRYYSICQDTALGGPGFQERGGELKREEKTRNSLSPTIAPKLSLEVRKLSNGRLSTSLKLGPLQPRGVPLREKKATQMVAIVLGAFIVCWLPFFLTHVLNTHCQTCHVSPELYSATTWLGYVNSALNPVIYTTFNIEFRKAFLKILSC
T3 sequence (P18841 whole entry): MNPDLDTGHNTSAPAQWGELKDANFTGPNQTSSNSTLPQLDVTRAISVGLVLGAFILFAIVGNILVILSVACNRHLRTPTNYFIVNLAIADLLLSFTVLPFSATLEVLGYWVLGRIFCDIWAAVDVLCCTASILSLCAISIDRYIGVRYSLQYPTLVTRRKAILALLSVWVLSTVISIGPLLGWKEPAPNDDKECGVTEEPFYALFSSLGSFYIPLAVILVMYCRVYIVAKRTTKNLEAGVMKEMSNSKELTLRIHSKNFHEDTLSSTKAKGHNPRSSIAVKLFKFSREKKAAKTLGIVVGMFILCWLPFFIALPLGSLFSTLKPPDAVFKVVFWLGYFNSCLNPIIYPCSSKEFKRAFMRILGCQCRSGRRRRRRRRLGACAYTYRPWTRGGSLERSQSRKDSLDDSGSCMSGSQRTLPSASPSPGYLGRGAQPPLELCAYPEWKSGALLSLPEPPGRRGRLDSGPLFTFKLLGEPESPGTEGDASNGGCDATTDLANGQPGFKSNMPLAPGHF
T7 sequence (P41145 whole entry): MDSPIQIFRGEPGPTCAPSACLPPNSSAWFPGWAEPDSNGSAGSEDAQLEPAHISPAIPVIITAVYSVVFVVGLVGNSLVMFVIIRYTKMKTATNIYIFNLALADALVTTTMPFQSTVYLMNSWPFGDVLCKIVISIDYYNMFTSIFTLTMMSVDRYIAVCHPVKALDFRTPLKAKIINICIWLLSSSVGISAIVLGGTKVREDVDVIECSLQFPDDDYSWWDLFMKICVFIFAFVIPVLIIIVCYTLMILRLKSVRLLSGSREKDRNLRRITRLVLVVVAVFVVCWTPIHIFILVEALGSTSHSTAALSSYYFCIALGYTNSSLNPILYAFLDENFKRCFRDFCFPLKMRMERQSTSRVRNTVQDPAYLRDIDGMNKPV
T1 sequence (P34969 1-445 isoform P34969-2): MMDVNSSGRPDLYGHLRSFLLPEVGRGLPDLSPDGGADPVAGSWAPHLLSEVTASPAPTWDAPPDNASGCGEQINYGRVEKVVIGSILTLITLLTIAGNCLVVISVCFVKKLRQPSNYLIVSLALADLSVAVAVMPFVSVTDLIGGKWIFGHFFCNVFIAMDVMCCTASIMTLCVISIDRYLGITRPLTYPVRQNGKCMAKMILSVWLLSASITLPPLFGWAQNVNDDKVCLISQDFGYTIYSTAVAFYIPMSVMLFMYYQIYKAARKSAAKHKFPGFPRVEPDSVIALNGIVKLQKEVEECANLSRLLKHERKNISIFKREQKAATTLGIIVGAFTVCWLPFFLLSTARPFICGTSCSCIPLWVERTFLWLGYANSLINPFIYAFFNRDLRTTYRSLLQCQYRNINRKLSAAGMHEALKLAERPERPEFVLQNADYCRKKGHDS

CC(C)COc1ccc(CN2C(=O)OC3(CCN(C)CC3)C2Cc2ccc(F)cc2)cc1.Cl (racemic) [Example 69NLS75, 4-(4-Fluorobenzyl)-3-(4-isobutoxybenzyl)-8-methyl-1-oxa-3,8-diazaspiro[4.5]decan-2-one, hydrochloride]
> 3.16 µM: EC50 (5HT7A; agonist) | IC50 (5HT7A; inverse) | EC50 (D3; agonist) | IC50 (D3; antagonist) | EC50 (alpha 1B; agonist) | IC50 (alpha 1B; antagonist) | EC50 (m1) | EC50 (m4) | EC50 (m5) | EC50 (oprk 1; agonist) | IC50 (oprk 1; antagonist)
